Test results from patent publication US8613948B2, “Treatment of faecal incontinence and other conditions with 1R, 2S-methoxamine” (Norgine BV, priority 2001, dated 2013).
Where “and” joins values, the source holds several entries; their conditions need not be identical. Identical values can stand only once. Like-named read-outs stand apart in the source and are kept apart here.

What was measured:
[1] = tested on: pig internal anal sphincter muscle; experiment: In vitro contraction of internal anal sphincter muscle strips in superfusion organ bath; type: cell-based; details: for EC50: Sus scrofa; for contraction of smooth muscle strips from the IAS: dose range 10^−2M to 10^−8M
Experimental: Tissue was obtained from female Large White pigs from a local abattoir. Pieces of internal anal sphincter muscle were cut and the tissue was transferred immediately to Krebs solution at 4° C. (120 mM NaCl, 5.9 mM KCl, 15.4 mM Na2HCO3, 1.2 mM NaH2PO4, 2.5 mM CaCl2, 1.2 mM MgCl2, 11.5 mM glucose, equilibrated with 97% oxygen and 3% carbon dioxide to maintain the pH at 7.4±0.05). The epithelium of the anal canal was removed along with the submucosa. Strips of the internal anal sphincter (IAS) were cut, each measuring approximately 1×1×7 mm, weighing 2 mg to 8 mg and containing parallel muscle bundles. Fine 5-0 silk ligatures were tied to each end and the strips mounted for isometric tension recording in superfusion organ baths (capacity 0.2 ml)^19 as shown in FIG. 1. The muscle strip 1 is held by a thread 2 to secure it in position within the Perspex jacket 3. The strips were perfused continuously with Krebs solution (37° C.) at a rate of 1 ml/min introduced via an inflow 4 and exiting via an overflow 5. This apparatus allows six strips to be studied simultaneously. The strips were initially loaded with 1 g tension and allowed to equilibrate for at least 90 minutes. Tension was measured by Pioden dynamometer UF1 transducer (Pioden Controls, Canterbury, UK) involving a tension transducer 6 and ring electrodes 7 and 7a, and recorded both on a six channel Tekman 900 pen recorder (Tekman Electronics, Learnington Spa, UK) and using Chart v3.6 and MacLab Data Acquisition System (AD Instruments, Australia).
Phenylephrine (Sigma Chemical Co., Poole, UK), methoxamine racemate and the four methoxamine isomers were dissolved in Krebs solution and tested for their effect on IAS tone. Methoxamine racemate, that is to say, an equimolar mixture of the four isomers, was produced by Prosyth Limited, Acton, Sudbury, Suffolk. The four isomers (called peaks 1 to 4), were separated as described in Example 3. Peak 2 is 1R,2S-methoxamine. The 1R,2S isomer was also synthesised as described in Example 4. It has been confirmed by crystallography that peak 2 is 1R,2S-methoxamine.
IAS strips developed intrinsic tone during the equilibrium period. After equilibration increasing concentrations of each of the test compounds were added for 20 second periods, with intervening washout periods of at least ten minutes, until the tone had returned to baseline.
Results are expressed as mean (standard error of the mean) and the number of surgical specimens from which these strips were derived. A maximum of six strips were used from each pig for each test compound.
Test compound-induced increases in tone were calculated by taking the peak tone after application of the test compound and […]. This figure was then expressed as a percentage of maximal increase in tone seen across the dose range used (10^−2M to 10^−8M). All analysis was performed using Chart v3.6 software.
EC50 values were calculated by plotting concentration-response curves for each muscle strip. The dose causing 50% of maximal contraction was calculated by linear regression. EC50 values for different drugs were compared using a two-tailed t-test, assuming unequal variance and with p<0.05 considered significant.

anaesthetised minipigs [2] = experiment: Mean anal resting pressure (MARP) in anaesthetised minipigs after topical administration to the anoderm; type: in vivo, Göttingen-minipigs; details: for effect on internal anal sphincter pressure and blood pressure: pigs in vivo
Experimental: • a) Placebo in 4% w/w gel • b) 0.3% by weight 1R,2S-methoxamine in 4% w/w gel • c) 1% by weight 1R,2S-methoxamine in 4% w/w gel • d) 3% by weight 1R,2S-methoxamine in 4% w/w gel • The 4% w/w gel comprises 4 g of hydroxypropylmethyl cellulose in 96 ml of 0.5M acetate buffer. 1% by weight 1R,2S-methoxamine in 4% w/w gel comprises 1 g of 1R,2S-methoxamine in 99 g of the 4% gel. Animals/Animal Maintenance
Göttingen-minipigs obtained from Ellegaard Göttingen Minipigs ApS, Soro Landevej 302, DK-4261 Dalmose, Denmark were used for the investigation. […] Four male animals were used. Animal no. 2 was replaced by animal no. 4, see below.
The minipigs were anaesthetised with a chloralose-urethane mixture (ratio 1+5). Additional anaesthesia was given when needed. To ensure a stable general condition of the minipig, blood gases and pH-value were measured in blood obtained from the right or left a. femoralis using a blood gas analyser ABL 70 (Radiometer, Copenhagen, Denmark) before start of experiment. Ringer solution (5 ml/kg b.w./h) was given continuously to compensate for fluid losses. The body temperature of the animals was maintained at 38° C. throughout the experiment of external heating.
(§1) The test substances were administered topically to the anoderm using a volume of 0.5 ml/animal. The interval between each observation period was 20 minutes. The administration was performed employing a 1 ml syringe inserted approximately 1 cm into the anal canal. The test substances were administered slowly while the syringe was rotated. After the preparation and a period of at least 15 minutes for stabilisation of the circulatory functions, the animals were treated with the placebo or the selected dose levels of the test substance by administration to the anoderm.
The anal resting pressure was measured by introduction of a manometric probe (Unisensor Microtipcatheter 8104-00-9409-D; Medical Measurement Systems b.v., Collosseum 25, NL-7521P.V. Enschede, The Netherlands) into the rectum three times. The anal resting pressure taken as a mean of these three measurements (MARP) was recorded with a Rikadenki Multipenrecorder.

anaesthetised minipigs [3] = experiment: Peripheral arterial blood pressure in anaesthetised minipigs after topical administration to the anoderm; type: in vivo, Göttingen-minipigs; details: 0.5 ml of 0.3%, 1%, 3% gels
Experimental: as §1
An intraarterial indwelling catheter (size 0.8×1.4 mm, B. Braun Melsungen AG, D-34212 Melsungen, Germany) was connected to a pressure transducer (DTX, Pfrimmer-Viggo, Erlangen, Germany) recording the systolic and diastolic arterial blood pressure in the right or left a. femoralis. The signal was boosed by a Hellige Servomed SMV 178 T amplifier (Hellige GmbH, D-79100 Freiburg, Germany). The blood pressure was recorded and monitored with a Hellige Cardiognost EK 512 P (paper speed: 2.5 mm/sec). Systolic and diastolic blood pressure [mmHg] were determined and the mean pressure was calculated according to the following formula: Mean blood pressure [mmHg]=(systolic pressure+(2×diastolic pressure))/3 Heart Rate and Electrocardiography […]

[4] = Methoxamine plasma levels in minipigs after topical administration to the anoderm; type: in vivo, Göttingen-minipigs; details: for mean peak plasma levels: 0.5 ml topical, two pigs
Experimental: as §1
Blood samples (5 ml/time-point) were taken immediately before and 10, 20, 40, 60, 90, and 120 minutes after start of administration, and were collected into lithium-heparin containers. The blood samples were immediately cooled at +2° C. to +8° C. by the use of an IsoTherm-Rack system (Eppendorf-Netheler-Hinz GmbH, D-22331 Hamburg, Germany) and the whole blood was processed for […]. Plasma was prepared by centrifugation (5 min, 4000 rpm, at +5° C.) and split into aliquots of approx. 1 ml each. Both plasma aliquots were immediately frozen at −80° C. at least and stored at this temperature until dispatch of one aliquot on dry ice for analysis.
The samples were analysed for the methoxamine plasma levels. The results are presented in Appendix 3.

anoderm = experiment: Macroscopical inspection of the anoderm; type: in vivo, Göttingen-minipigs; details: 0.3%, 1%, or 3%
Experimental: A macroscopical inspection of the anoderm was carried out during the experiments. Any obvious irritation and/or erythema caused by the fairly low pH value of the test substance formulation was reported.

anaesthetised minipigs [5] = tested on: anaesthetised minipigs; design: species or system Göttingen-minipigs; details: in vivo
Experimental: as §1
ECG recordings were made using the standard limb leads I, II and III as well as augmented limb leads aVR, aVL and aVF. A standardisation of 10 mm/1 mV was used and a paper speed of 50 mm/sec. The recordings were carried out using a HELLIGE Marquette mac 5000 12SL. The recordings were examined visually for any arrhythmias and abnormalities of the electrical complexes. In addition, the following parameters were evaluated for limb lead II: Heart rate [beats/min]; P segment, [msec]; P-Q interval, [msec]; QRS complex [msec]; Q-T interval, [msec]. The QTc values [msec] were calculated according to the van de Water-formula: QTc=QT−0.087 (R-R distance−1000)
For each measurement period the heart rate, ECG and the blood pressure in the a. femoralis were measured continuously and recorded immediately before and 5, 10, 15, 20, 40 and 60 minutes after start of administration for periods of approx. 30 sec, and then in intervals of 20 minutes until any effect had subsided.

anaesthetised minipigs [6] = experiment: Reactivity of the circulatory functions to arterenol or isoproterenol; type: in vivo, Göttingen-minipigs; details: any of the gels
Experimental: Before the first administration and at further suitable times after the administration, isoproterenol was administered intravenously for control purposes. Arterenol (norephinephrine hydrochloride, also known as L-noradrenaline) was administered for control purposes at the end of the study only after completing the collection of the blood samples for toxicokinetics.

[7] = tested on: patients with incontinence; details: cited from earlier work
human subjects = details: cited from earlier work
[8] = IAS smooth muscle strips, n=24(4), read-out: EC50 values
[9] = pig IAS strips, Table 1, read-out: EC50 value μM (±SE)

SMILES: COc1ccc(OC)c(C(O)C(C)N)c1 (racemic) [methoxamine racemate, 2-amino-1-(2,5-dimethoxyphenyl)-1-propanol]
- EC50 [1, 8]: 0.058 µM
- EC50 [1, 9]: 58.3 µM
- contraction of smooth muscle strips from the IAS [1]: caused a dose-dependent contraction

SMILES: COc1ccc(OC)c([C@@H](O)C(C)N)c1 (single isomer, unassigned) [1R,2S-methoxamine]
- increase in MARP compared to the start value (anaesthetised minipigs [2]; 0.5 ml of 0.3% gel): 73%
- period of MARP increase (anaesthetised minipigs [2]; 0.5 ml of 0.3% gel): 110 min
- start of MARP increase after administration (anaesthetised minipigs [2]; 0.5 ml of 0.3% gel): 5 min
- MARP (anaesthetised minipigs [2]; 0.5 ml of 0.3% gel, topical to anoderm, average): 50 mmHg
- increase in MARP (anaesthetised minipigs [2]; 0.5 ml of 1% gel): 227%
- time after application to MARP increase (anaesthetised minipigs [2]; 0.5 ml of 1% gel): ≤ 20 min
- MARP (anaesthetised minipigs [2]; 0.5 ml of 1% gel, average): 64 mmHg
- MARP (anaesthetised minipigs [2]; 0.5 ml of 3% gel): 70 mmHg
- MARP (anaesthetised minipigs [2]; 0.5 ml of 3% gel, listed as IR,2S-methoxamine): approx. 70 mmHg
- effect on internal anal sphincter pressure and blood pressure (anaesthetised minipigs [2]; 0.5 ml of gel containing 1% or 0.3% by weight (5 mg and 1.5 mg), topical): increase internal anal sphincter pressure without any effect on blood pressure
- effect on internal anal sphincter pressure and blood pressure (anaesthetised minipigs [2]; gels containing 1% by weight and even as little as 0.1% by weight): increase internal anal sphincter pressure without any effect on blood pressure
- systolic, diastolic or mean blood pressure (anaesthetised minipigs [3]): not influenced
- maximum plasma levels ([4]; 0.3% formulation): 6 ng methoxamine/ml plasma
- time of peak plasma levels ([4]; 0.3% gel): 40 min
- mean peak plasma levels ([4]; 0.3% gel): 4.90 ng/mL and 6.97 ng/mL
- time of maximum plasma levels following application ([4]; 0.3%, 1% and 3% formulations): approximately 40 minutes
- maximum plasma levels ([4]; 1% formulation): 10 ng methoxamine/ml plasma
- mean peak plasma levels ([4]; 1.0% gel): 9.88 ng/mL and 11.0 ng/mL
- maximum plasma levels ([4]; 3% formulation): 56 ng methoxamine/ml plasma
- mean peak plasma levels ([4]; 3.0% gel): 50.4 ng/mL and 61.3 ng/mL
- macroscopic inspection: pathological changes (anoderm): No pathological changes were observed
- heart rate (anaesthetised minipigs [5]; Göttingen, minipig, 2 h): approx. 100 beats/min
- increase in the heart rate (anaesthetised minipigs [5]; Göttingen, minipig, 2 h): 29%
- influence on P-segment, P-Q interval, Q-T interval, QTc value and QRS complex (anaesthetised minipigs [5]): no substance-related influence
- prolongation of the QT-interval (anaesthetised minipigs [5]): no evidence was noted for a prolongation of the QT-interval
- ventricular premature complexes (visual assessment of ECG) (anaesthetised minipigs [5]): did not reveal any ventricular premature complexes
- EC50 ([1]; chemically synthesised 1R,2S isomer, pig IAS strips, read-out: EC50): 10.5 µM
- EC50 [1, 9]: 17.6 µM
- contraction of smooth muscle strips from the IAS [1]: caused dose dependent contraction
- potency at inducing contraction of internal anal sphincter muscle in vitro relative to phenylephrine ([1]; in vitro): at least four times more potent
- potency relative to methoxamine racemate ([1]; racemate = equimolar mixture of all four isomers): at least four times the potency
- expected reactions to arterenol or isoproterenol (anaesthetised minipigs [6]): not influenced

SMILES: CNC[C@H](O)c1cccc(O)c1 [Phenylephrine]
- subjective improvement in continence ([7]; 10% gel, patients with faecal leakage after ileoanal pouch construction): significantly greater subjective improvement in continence compared to placebo
- incontinence scores, resting anal canal pressure or anodermal blood flow ([7]; 10% gel, randomised controlled trial, 36 patients with incontinence): no significant overall improvements
- local side effect ([7]; topical preparations of the order of 30-40% by weight): perianal burning has been reported
- EC50 [1, 8]: 75 µM
- EC50 [1, 9]: 74.7 µM
- contraction of smooth muscle strips from the IAS [1]: caused a dose-dependent contraction
- duration of rise in resting anal pressure (median) (human subjects; 10% gel, normal human subjects): 7 h
- rise in resting anal pressure (human subjects; 10% to 20% by weight gels, patients with low resting pressures and incontinence): no significant rise in resting anal pressure
- rise in resting anal pressure (human subjects; 30% and 40% gels, patients with low resting pressures and incontinence): increases did achieve statistical significance
- rise in resting anal pressure (human subjects; gel comprising 10% by weight, applied to the anus of normal human subjects): 33%
